biological target: Human Factor D (Homo sapiens (Human), UniProt P00746); assay: Human Factor D Assay; type: biochemical; details: not given
Method: Human Factor D (purified from human serum, Complement Technology, Inc.) at 80 nM final concentration was incubated with test compound at various concentrations for 5 minutes at room temperature in 50 mM Tris, 1M NaCl, pH 7.5. A synthetic substrate Z-L-Lys-SBzl and DTNB (Ellman's reagent) are added to final concentrations of 100 μM each. […] IC50 values are calculated by nonlinear regression of complement Factor D reaction rates as a function of test compound concentration.

Chain of Human Factor D (P00746 26-253): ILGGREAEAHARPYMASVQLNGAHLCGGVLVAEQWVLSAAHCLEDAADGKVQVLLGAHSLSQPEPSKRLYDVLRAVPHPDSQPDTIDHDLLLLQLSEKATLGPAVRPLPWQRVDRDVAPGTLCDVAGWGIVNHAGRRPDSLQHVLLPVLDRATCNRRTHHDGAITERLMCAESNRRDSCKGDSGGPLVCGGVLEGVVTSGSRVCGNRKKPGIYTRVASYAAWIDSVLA

SMILES	IC50 [µM]
CC(=O)c1cn(CC(=O)N2C[C@H](F)C[C@H]2C(=O)Nc2ccccc2-c2nc3ccccc3s2)c2ccc(-c3ccnnc3)cc12 [Compound 34, (2S,4R)-1-(2-(3-acetyl-5-(pyridazin-4-yl)-1H-indol-1-yl)acetyl)-N-(2-(benzo[d]thiazol-2-yl)phenyl)-4-fluoropyrrolidine-2-carboxamide]	> 10
NC(=O)c1nn(CC(=O)N2C[C@H](F)C[C@H]2C(=O)NCc2cccnc2)c2ccc(-c3ccnnc3)cc12 [Compound 39, 1-(2-((2S,4R)-4-fluoro-2-(pyridin-3-ylmethylcarbamoyl)pyrrolidin-1-yl)-2-oxoethyl)-5-(pyridazin-4-yl)-1H-indazole-3-carboxamide]	1 to 10
NC(=O)c1nn(CC(=O)N2C[C@H](F)C[C@H]2C(=O)Nc2cccnc2)c2ccc(-c3ccnnc3)cc12 [Compound 47, 1-(2-((2S,4R)-4-fluoro-2-(pyridin-3-ylcarbamoyl)pyrrolidin-1-yl)-2-oxoethyl)-5-(pyridazin-4-yl)-1H-indazole-3-carboxamide]	> 10
CCN1Cc2ccc(NC(=O)[C@@H]3C[C@@H](F)CN3C(=O)Cn3cc(C(C)=O)c4cc(-c5ccnnc5)ccc43)cc2C1=O [Compound 49, (2S,4R)-1-(2-(3-acetyl-5-(pyridazin-4-yl)-1H-indol-1-yl)acetyl)-N-(2-ethyl-3-oxoisoindolin-5-yl)-4-fluoropyrrolidine-2-carboxamide]	1 to 10
CC(=O)c1cn(CC(=O)N2C[C@H](F)C[C@H]2C(=O)NCc2cccnc2)c2ccc(-c3ccnnc3)cc12 [Compound 59, (2S,4R)-1-(2-(3-acetyl-5-(pyridazin-4-yl)-1H-indol-1-yl)acetyl)-4-fluoro-N-(pyridin-3-ylmethyl) pyrrolidine-2-carboxamide]	1 to 10

same assay, conditions: Human Factor D 80 nM, substrate Z-L-Lys-SBzl; read-out: IC50

SMILES	IC50 [µM]
COc1ncc(-c2ccc3c(c2)c(C(C)=O)cn3CC(=O)N2C[C@H](F)C[C@H]2C(=O)Nc2cccc(-c3ccccc3Cl)c2F)cn1 [Compound 27, (2S,4R)-1-(2-(3-acetyl-5-(2-methoxypyrimidin-5-yl)-1H-indol-1-yl)acetyl)-N-(2′-chloro-2-fluorobiphenyl-3-yl)-4-fluoropyrrolidine-2-carboxamide]	< 1
CC(=O)c1cn(CC(=O)N2C[C@H](F)C[C@H]2C(=O)Nc2cccc(-c3ccccc3Cl)c2F)c2ccc(C3=CCN(C(C)=O)CC3)cc12 [Compound 28, (2S,4R)-1-(2-(3-Acetyl-5-(1-acetyl-1,2,3,6-tetrahydropyridin-4-yl)-1H-indol-1-yl)acetyl)-N-(2′-chloro-2-fluoro-[1,1′-biphenyl]-3-yl)-4-fluoropyrrolidine-2-carboxamide]	< 1
COc1ncc(-c2ccc3c(c2)c(C(N)=O)nn3CC(=O)N2C[C@H](F)C[C@H]2C(=O)Nc2cccc(-c3ccccc3Cl)c2F)cn1 [Compound 29, 1-(2-((2S,4R)-2-(2′-chloro-2-fluorobiphenyl-3-ylcarbamoyl)-4-fluoropyrrolidin-1-yl)-2-oxoethyl)-5-(2-methoxypyrimidin-5-yl)-1H-indazole-3-carboxamide]	< 1
COc1ncc(-c2ccc3c(c2)c(C(N)=O)nn3CC(=O)N2C[C@H](F)C[C@H]2C(=O)Nc2cccc(Cl)n2)cn1 [Compound 30, 1-(2-((2S,4R)-2-(6-chloropyridin-2-ylcarbamoyl)-4-fluoropyrrolidin-1-yl)-2-oxoethyl)-5-(2-methoxypyrimidin-5-yl)-1H-indazole-3-carboxamide]	< 1
CC(=O)c1cn(CC(=O)N2C[C@H](F)C[C@H]2C(=O)Nc2cccc(-c3ccccc3Cl)c2F)c2ccc(N3CCN(c4ncccn4)CC3)cc12 [Compound 31, (2S,4R)-1-(2-(3-acetyl-5-(4-(pyrimidin-2-yl)piperazin-1-yl)-1H-indol-1-yl)acetyl)-N-(2′-chloro-2-fluorobiphenyl-3-yl)-4-fluoropyrrolidine-2-carboxamide]	< 1
CC(=O)c1cn(CC(=O)N2C[C@H](F)C[C@H]2C(=O)Nc2cccc(-c3ccccc3Cl)c2F)c2ccc(N3CCN(c4ncc(F)cn4)CC3)cc12 [Compound 32, (2S,4R)-1-(2-(3-acetyl-5-(4-(5-fluoropyrimidin-2-yl)piperazin-1-yl)-1H-indol-1-yl)acetyl)-N-(2′-chloro-2-fluorobiphenyl-3-yl)-4-fluoropyrrolidine-2-carboxamide]	< 1
CC(=O)c1cn(CC(=O)N2C[C@H](F)C[C@H]2C(=O)Nc2cccc(-c3ccccc3Cl)c2F)c2ccc(N3CCN(S(C)(=O)=O)CC3)cc12 [Compound 33, (2S,4R)-1-(2-(3-Acetyl-5-(4-(methylsulfonyl)piperazin-1-yl)-1H-indol-1-yl)acetyl)-N-(2′-chloro-2-fluoro-[1,1′-biphenyl]-3-yl)-4-fluoropyrrolidine-2-carboxamide]	< 1
CC(=O)c1cn(CC(=O)N2C[C@H](F)C[C@H]2C(=O)NCc2ccccn2)c2ccc(-c3ccnnc3)cc12 [Compound 38, (2S,4R)-1-(2-(3-acetyl-5-(pyridazin-4-yl)-1H-indol-1-yl)acetyl)-4-fluoro-N-(pyridin-2-ylmethyl) pyrrolidine-2-carboxamide]	< 1
NC(=O)c1nn(CC(=O)N2C[C@H](F)C[C@H]2C(=O)Nc2ccccc2-c2nc3ccccc3s2)c2ccc(-c3ccnnc3)cc12 [Compound 41, 1-(2-((2S,4R)-2-(2-(benzo[d]thiazol-2-yl)phenylcarbamoyl)-4-fluoropyrrolidin-1-yl)-2-oxoethyl)-5-(pyridazin-4-yl)-1H-indazole-3-carboxamide]	> 10
CC(=O)c1cn(CC(=O)N2C[C@H](F)C[C@H]2C(=O)Nc2noc3cc(C(F)(F)F)ccc23)c2ccc(-c3ccnnc3)cc12 [Compound 42, (2S,4R)-1-(2-(3-acetyl-5-(pyridazin-4-yl)-1H-indol-1-yl)acetyl)-4-fluoro-N-(6-(trifluoromethyl)benzo[d]isoxazol-3-yl)pyrrolidine-2-carboxamide]	> 10
CC(=O)c1cn(CC(=O)N2C[C@H](F)C[C@H]2C(=O)NCc2cccc(Cl)c2)c2ccc(-c3ccnnc3)cc12 [Compound 44, (2S,4R)-1-(2-(3-acetyl-5-(pyridazin-4-yl)-1H-indol-1-yl)acetyl)-N-(3-chlorobenzyl)-4-fluoropyrrolidine-2-carboxamide]	< 1
NC(=O)c1nn(CC(=O)N2C[C@H](F)C[C@H]2C(=O)NCc2cccc(Cl)c2)c2ccc(-c3ccnnc3)cc12 [Compound 45, 1-(2-((2S,4R)-2-(3-chlorobenzylcarbamoyl)-4-fluoropyrrolidin-1-yl)-2-oxoethyl)-5-(pyridazin-4-yl)-1H-indazole-3-carboxamide]	< 1
CC(=O)c1cn(CC(=O)N2C[C@H](F)C[C@H]2C(=O)NCc2cc(F)cc(Cl)c2)c2ccc(-c3ccnnc3)cc12 [Compound 46, (2S,4R)-1-(2-(3-acetyl-5-(pyridazin-4-yl)-1H-indol-1-yl)acetyl)-N-(3-chloro-5-fluorobenzyl)-4-fluoropyrrolidine-2-carboxamide]	< 1
CCN1Cc2ccc(NC(=O)[C@@H]3C[C@@H](F)CN3C(=O)Cn3nc(C(N)=O)c4cc(-c5ccnnc5)ccc43)cc2C1=O [Compound 48, 1-(2-((2S,4R)-2-(2-ethyl-3-oxoisoindolin-5-ylcarbamoyl)-4-fluoropyrrolidin-1-yl)-2-oxoethyl)-5-(pyridazin-4-yl)-1H-indazole-3-carboxamide]	> 10
NC(=O)c1nn(CC(=O)N2C[C@H](F)C[C@H]2C(=O)Nc2ccc3ncsc3c2)c2ccc(-c3ccnnc3)cc12 [Compound 50, 1-(2-((2S,4R)-2-(benzo[d]thiazol-6-ylcarbamoyl)-4-fluoropyrrolidin-1-yl)-2-oxoethyl)-5-(pyridazin-4-yl)-1H-indazole-3-carboxamide]	> 10
NC(=O)c1nn(CC(=O)N2C[C@H](F)C[C@H]2C(=O)N[C@@H]2CCC[C@@H]2OCc2ccccc2)c2ccc(-c3ccnnc3)cc12 [Compound 51, 1-(2-((2S,4R)-2-((1R,2S)-2-(benzyloxy)cyclopentyl-carbamoyl)-4-fluoropyrrolidin-1-yl)-2-oxoethyl)-5-(pyridazin-4-yl)-1H-indazole-3-carboxamide]	> 10
NC(=O)c1nn(CC(=O)N2C[C@H](F)C[C@H]2C(=O)NCc2nc3ccccc3s2)c2ccc(-c3ccnnc3)cc12 [Compound 52, 1-(2-((2S,4R)-2-(benzo[d]thiazol-2-ylmethylcarbamoyl)-4-fluoropyrrolidin-1-yl)-2-oxoethyl)-5-(pyridazin-4-yl)-1H-indazole-3-carboxamide]	> 10
CC(=O)c1cn(CC(=O)N2C[C@H](F)C[C@H]2C(=O)Nc2nc(-c3ccc4c(c3)CCCC4)cs2)c2ccc(-c3ccnnc3)cc12 [Compound 54, (2S,4R)-1-(2-(3-acetyl-5-(pyridazin-4-yl)-1H-indol-1-yl)acetyl)-4-fluoro-N-(4-(5,6,7,8-tetrahydro-naphthalen-2-yl)thiazol-2-yl)pyrrolidine-2-carboxamide]	> 10
NC(=O)c1nn(CC(=O)N2C[C@H](F)C[C@H]2C(=O)Nc2nc(-c3ccc4c(c3)CCCC4)cs2)c2ccc(-c3ccnnc3)cc12 [Compound 55, 1-(2-((2S,4R)-4-fluoro-2-(4-(5,6,7,8-tetrahydro-naphthalen-2-yl)thiazol-2-ylcarbamoyl)pyrrolidin-1-yl)-2-oxoethyl)-5-(pyridazin-4-yl)-1H-indazole-3-carboxamide]	> 10
CC(=O)c1cn(CC(=O)N2C[C@H](F)C[C@H]2C(=O)Nc2nc(-c3c(C)nc4sccn34)cs2)c2ccc(-c3ccnnc3)cc12 [Compound 57]	> 10
Cc1nc2sccn2c1-c1csc(NC(=O)[C@@H]2C[C@@H](F)CN2C(=O)Cn2nc(C(N)=O)c3cc(-c4ccnnc4)ccc32)n1 [Compound 58, 1-(2-((2S,4R)-4-fluoro-2-(4-(6-methylimidazo[2,1-b]thiazol-5-yl)thiazol-2-ylcarbamoyl)pyrrolidin-1-yl)-2-oxoethyl)-5-(pyridazin-4-yl)-1H-indazole-3-carboxamide]	> 10
CC(=O)c1cn(CC(=O)N2C[C@H](F)C[C@H]2C(=O)Nc2ccc(CNC(=O)OCC3c4ccccc4-c4ccccc43)cc2)c2ccc(-c3ccnnc3)cc12 [Compound 61]	> 10
